| SMILES | melting point |
| --- | --- |
| O=c1[nH]c2ccc(Br)cc2c(=O)o1 | 285 to 290 °C |
| O=C1CCCCCN1c1ccccc1 | 57 °C |
| COc1ccc(SC)cc1 | 22 to 23 °C |
| COc1ccc(C2(C)CCc3oc4ccc(C)cc4c3-c3oc(C)cc32)cc1 (stereo not drawn) | 170 °C |
| O=C(O)C=Cc1cccc(C(Br)=C(Br)C(=O)O)c1 | 214 °C |
| O=C(c1cccc([N+](=O)[O-])c1)c1nn(-c2ccccc2)/c(=N\Nc2ccccc2)s1 | 184 °C |
| O=C(Nc1c(Cl)cccc1Cl)C(C(F)(F)F)C(F)(F)F | 196 °C |
| CNP(=O)(NC)Oc1ccccc1 | 102 °C |
| CN1CCC(=C2c3ccccc3CC(=O)c3sccc32)CC1 | 152 °C |
| CC12CCC(C(C(=O)O)C1=O)C2(C)C (stereo not drawn) | 128 °C |
| CC(=O)C1C(=O)C2(C)CCC1C2(C)C (stereo not drawn) | 201 °C |
| NC(=S)c1ncc(C(F)(F)F)cc1Cl | 135 to 136 °C |
| COC(=O)c1ccc(I)c([N+](=O)[O-])c1 | 102 °C |
| Oc1ccccc1C1Nn2c(COc3ccccc3)nnc2S1 (stereo not drawn) | 217 °C |
| NNc1nccc(C(F)(F)F)n1 | 100 to 101 °C |
| COC(CN1CCN(CC(O)C(OC)c2ccccc2)CC1)c1ccccc1 (stereo not drawn) | 83 °C |
| Cc1n[nH]c(C)c1Br | 121 °C |
| Nc1ccc(Br)c(Cl)c1Cl | 75 to 77 °C |
| CCCCCCCOC(=O)CCC | -57.5 °C |
| CCCCCCCCCCCC(=O)Oc1ccccc1 | 24.5 °C |
| Brc1cccc2c1Oc1ccccc1O2 | 104 °C |
| CCOC(=O)C(=Nn1nnc2ccccc21)C(=O)OCC | 100 °C |
| Cc1ccc(C#N)cc1C | 67 to 69 °C |
| CCCOC(=O)C(=O)OCCC | -44.3 °C |
| CC(CCC(=O)O)C1CCC2C3C(=O)CC4CCCCC4(C)C3CC(=O)C12C (stereo not drawn) | 176 °C |
| CC(=O)OCC1C(=O)C2(C)CCC1C2(C)C (stereo not drawn) | 148 °C |

| SMILES | melting point |
| --- | --- |
| CCOc1cccc2ccccc12 | 5.5 °C |
| CC1(C)c2ccccc2N(Cc2ccccc2)C12C=Cc1cc([N+](=O)[O-])ccc1O2 (stereo not drawn) | 158 to 160 °C |
| O=C(O)c1sccc1-n1cccc1 | 166 °C |
| Cc1cc(O)cc(C)c1Br | 115 °C |
| NC(=S)Nc1cc(C(F)(F)F)cc(C(F)(F)F)c1 | 166 to 168 °C |
| N#CC(C#N)=Cc1ccc(Cl)cc1 | 91 °C |
| CC(=O)N(c1ccccc1)c1ccccc1 | 103 °C |
| NC(=O)Nc1cccc(O)c1 | 182 to 184 °C |
| CC12CCC3C(CCC4=CC(=O)C=CC43O)C1CCC2=O (stereo not drawn) | 219 to 221 °C |
| CCCCCCCOC(=O)c1ccc(O)cc1 | 48 °C |
| NCCc1ccc(O)cc1 | 164 °C |
| O=C(Cl)c1ccc2occc2c1 | 67 to 68 °C |
| O=Cc1ccc(-n2cccc2)cc1 | 94 to 95 °C |
| O=C(O)c1c(F)cccc1C(F)(F)F | 88 to 89 °C |
| CC1=C(C(=O)Nc2ccccc2)SCCO1 | 91.5 °C |
| Clc1c(Cl)c(Cl)c2nccnc2c1Cl | 190 °C |
| Cc1nc(/C(C#N)=C/c2ccc(O)cc2)sc1/N=N/c1ccc(Cl)cc1 | 230 °C |
| Brc1cc2ccc1CCc1ccc(c(Br)c1)CC2 | 251 °C |
| O[C@@H]1CCCC/C=C\c2ccccc21 | 97 °C |
| CC1(C)CCC2(C)CCC3(C)C(=CCC4C5(C)CCC(O)C(C)(C)C5CCC43C)C2C1 (stereo not drawn) | 197 °C |
| O=Cc1ccccc1OC1OC(CO)C(O)C(O)C1O (stereo not drawn) | 178 °C |
| CCCCCCCCCCC(=O)CCCCC | 37 °C |
| Cn1nc(-c2ccccc2)cc1CCl | 70 to 72 °C |
| CCCCCF | -120 °C |
| Nc1ccc2oc3c(c2c1)CCCC3 | 73 to 75 °C |
| Cc1noc(NS(=O)(=O)c2ccc(N)cc2)c1C | 193 °C |

| SMILES | melting point |
| --- | --- |
| NC(=S)N1CCOCC1 | 153 to 156 °C |
| CN1C(=O)Cc2cc(S(=O)(=O)Cl)ccc21 | 154 to 158 °C |
| Cc1ccc(-c2csc(/C(C#N)=N\Nc3cccc([N+](=O)[O-])c3)n2)cc1 | 225 °C |
| CC12CCC(=O)C(Cl)=C1CCC1C2CCC2(C)C(O)CCC12 (stereo not drawn) | 189 °C |
| CC(O)C1CC1 (stereo not drawn) | -32.1 °C |
| COc1ccc(C(C(=O)NCc2ccccc2)N(Cc2ccc(C)o2)C(=O)CNC(=O)OC(C)(C)C)cc1OC (stereo not drawn) | 177 °C |
| C/C=C/C1Nn2c(nnc2-c2cccnc2)S1 (stereo not drawn) | 120 to 122 °C |
| Clc1ccc(Cn2c(CN3CCCC3)nc3ccccc32)cc1 | 167 °C |
| O=S(=O)(Cl)c1ccc(Br)cc1C(F)(F)F | 62 to 63 °C |
| Oc1c(Br)cc(Br)cc1Br | 95.5 °C |
| CCCC1(O)CCC2C3CCC4CC(OC(C)=O)CCC4(C)C3CCC21C (stereo not drawn) | 120 to 121 °C |
| COC(=O)c1cc(OCc2ccccc2)cc(OCc2ccccc2)c1 | 67 to 70 °C |
| COC(=O)c1ccc([N+](=O)[O-])c(O)c1 | 91 °C |
| CSc1nc(N)nc(-c2cccnc2)n1 | 243 to 254 °C |
| CCCCCCCCCCCCCCCCCl | 17.9 °C |
| CCC1=CCCC1=NNc1ccc([N+](=O)[O-])cc1[N+](=O)[O-] | 220 °C |
| O=C1C(=C2c3ccccc3C(=O)C2c2cc(Cl)c([N+](=O)[O-])cc2[N+](=O)[O-])C(=O)c2ccccc21 (stereo not drawn) | 218 °C |
| CC(Cc1oc2c(c3c(c4ccccc42)O[C@@H]2CC(=O)O[C@H]32)c(=O)c1[Si](C)(C)C)O[Si](C)(C)C(C)(C)C (stereo partly drawn) | 188 to 190 °C |
| O=C(O)C(O)(C(F)(F)F)C(F)(F)F | 81 °C |
| C=C1C(=O)C23C(OC(C)=O)CC4C5(C)CCCC4(C(O)OC5)C2C(OC(C)=O)CC1C3OC(C)=O (stereo not drawn) | 226 °C |
| Nc1c(Br)cc(C(F)(F)F)cc1Br | 38 °C |
| CN(C)c1ccc2c(c1)Sc1cc(N(C)C)ccc1N2C(=O)c1ccccc1 | 195 °C |
| OCCC(F)(F)C(F)(F)C(F)(F)C(F)(F)F | -58 °C |
| COc1ccccc1-c1nnc2n1NC(c1ccc([N+](=O)[O-])cc1)S2 (stereo not drawn) | 196 °C |
| COc1ccccc1-c1nnc2n1NCS2 | 123 °C |
| CC12CCC(C(OC(=O)c3ccc([N+](=O)[O-])cc3)=CC1=O)C2(C)C (stereo not drawn) | 121 °C |

| SMILES | melting point |
| --- | --- |
| COP(=S)(OC)Oc1cc(Cl)c(I)cc1Cl | 76 °C |
| C=CCN(CC=C)C(=O)CCl | 25 °C |
| O=C1c2ccc(C(Br)Br)c([N+](=O)[O-])c2C(=O)c2c(Cl)c(Cl)c(Cl)c(Cl)c21 | 246 to 248 °C |
| O=Cc1cccc2ccnn12 | 85 °C |
| CC(=O)OC1(C)Cc2c(C)c(C)c(C)c(C)c21 (stereo not drawn) | 70 °C |
| CC(=O)N1C(=O)N2CCc3ccccc3C2(c2ccc(Cl)cc2)C1=O (stereo not drawn) | 135 to 136 °C |
| CCCCCCOCCCCCC | -43 °C |
| CCOC(=O)c1coc(Cl)n1 | 97.5 °C |
| C#CCC(C)(C)C | -75 °C |
| CC(C)(C)OC(=O)N1CCN(Cc2ccc(CO)cc2)CC1 | 52 to 53 °C |
| O=C(N[N+](=O)[O-])c1ccccc1 | 143 °C |
| CC1(C)OC2CC3C4CC(F)C5=CC(=O)C=CC5(C)C4(F)C(O)CC3(C)C2(C(=O)CO)O1 (stereo not drawn) | 266 °C |
| CC(C)(CO)C(=O)O | 124 °C |
| N#C/C(=C\c1cccc(O)c1)c1nc2ccccc2[nH]1 | 299 to 300 °C |
| OCc1c(F)cccc1Cl | 43 °C |
| C(=Nc1ccccc1)=Nc1ccccc1 | 169 °C |
| O=C(O)C(O)C(O)C(O)C(O)C(=O)O (stereo not drawn) | 230 °C |
| C[Si](C)(C)O[Si](C)(C)O[Si](C)(C)O[Si](C)(C)O[Si](C)(C)C | -80 °C |
| CCOC(=O)c1c[nH]c(=S)[nH]c1=O | 252 °C |
| COc1cc(C=NNC(=O)CCn2c(C)nc3ccccc32)ccc1O | 230 °C |
| Clc1ccc2c(c1)Oc1c(Cl)c(Cl)c(Cl)c(Cl)c1O2 | 195 °C |
| O=C(c1ccccc1)N(CC(=Nc1ccccc1)Nc1ccccc1)c1ccccc1 | 142 °C |
| Cc1[nH]c2ccc([N+](=O)[O-])cc2c1C | 189 °C |
| CCCC1C2=C(OC(=O)C1(C)C)c1ccc(OC)cc1CC2 (stereo not drawn) | 129 °C |
| CC(C)S(=O)(=O)n1c(N)nc2ccc(C(=NO)c3ccccc3)cc21 | 198 °C |
| O=C(O)C(C(=O)O)c1ccsc1 | 139 °C |

| SMILES | melting point |
| --- | --- |
| O=c1[nH]c(=O)n(CCO)c2c1CCCC2 | 275 to 278 °C |
| O=[N+]([O-])c1ccc(Oc2ccc(Cl)cc2)nc1 | 93 to 96 °C |
| CCCCCCCCC1CCCCC1 | -20 °C |
| CC(C)Oc1ccc(S(=O)(=O)Cl)cc1 | 33 °C |
| CC(C)CCCC(C)C1CCC2C3CCC4CCCCC4(C)C3CCC12C (stereo not drawn) | 79 to 80 °C |
| FC(Br)C(F)(F)F (stereo not drawn) | -80 °C |
| CC(=O)NC1CCCCC(NC(C)=O)CCCC1 (stereo not drawn) | 296 to 297 °C |
| CCS(=O)(=O)CCO | 46 °C |
| Cc1ccc(N)c(O)c1 | 157 °C |
| Nc1ccc([N+](=O)[O-])cc1C(F)(F)F | 92 °C |
| NNc1ccccc1C(F)(F)F | 60 °C |
| OCc1cccc(CO)n1 | 112 to 115 °C |
| CC(C)[C@H](O)C(=O)O | 65 to 68 °C |
| O=C(c1ccc2c(c1O)CC=CC2)c1cccc2ccccc12 | 132 °C |
| CC(C)c1ccc(O)c(O)c1 | 78 °C |
| CC1C(=O)CCCC1=O | 206 °C |
| O=C(Nc1ccccc1)Nc1ccnc(Cl)c1 | 167 °C |
| O=Nc1ccc(C(=O)OC2Cc3ccccc32)cc1 (stereo not drawn) | 119 °C |
| ON=Cc1ccc(Cl)cc1Cl | 134 to 136 °C |
| Fc1nccc(Br)c1Br | 76 °C |
| Nc1ccccc1C(=O)c1ccccc1C(=O)O | 196 to 200 °C |
| C/C(=N/NC(N)=O)C1=CC2(C)CCC1C2(C)C (stereo not drawn) | 218 °C |
| COc1ccc(/C=C/c2ccc([N+](=O)[O-])cc2[N+](=O)[O-])cc1O | 190 to 191 °C |
| COC(C)(C)OC | -47 °C |

From a melting point compilation (Tetko et al.)
